Measurements as given in patent publication US5256528A, “Magenta image-dye couplers of improved hue” (Eastman Kodak Company, priority 1992, dated 1993).

How the values were obtained:
[1] = λmax with coupler solvents and addenda (KODAK FLEXICOLOR C-41 variants); type: physicochemical; details: Table VI
Experimental: (§1) Dispersions of the coupler B3 were prepared with coupler solvents S1 and C2, both at a 1:1 B3:coupler solvent weight ratio. Dispersions of coupler M1 were prepared with C2 at 1:1 and with C2 plus aniline A1 at a 1:0.8:0.2 M1:C2:A1 weight ratio. These dispersions were prepared by dissolving the coupler in a mixture of coupler solvent, aniline A1 (optional) and cyclohexanone. The coupler:cyclohexanone weight ratio was 1:3. This mixture was then added to an aqueous solution of gelatin and ALKANOL XC surfactant. The two-phase mixture was then passed through a colloid mill to disperse the coupler-containing oil phase in the aqueous phase in the form of small droplets. The dispersion was then chilled, noodled and washed to remove the auxiliary cyclohexanone solvent. The resulting dispersions contained approximately 2% by weight of coupler and 6% by weight of gelatin.
(§2) The dispersions were then coated on a transparent support together with a silver bromoiodide emulsion in the format shown below. Coatings were then exposed through a stepwedge and subjected to variants of the KODAK FLEXICOLOR (C-41) process described below. One set of film samples was processed with an acetic acid stop bath between the development and bleach steps (process A). A second set of films was processed without a stop bath and with the bleach pH adjusted to 6.0 instead of the normal 5.25 (process B). This is intended to simulate behavior in a "seasoned" bleach whose pH increases due to carry-over of base from the developer solution. The difference between Dmin values (densities obtained in unexposed portions of the films) between process A and process B are due to continued coupling between coupler and developer carried over into the bleach. Both the lack of a stop bath and the high bleach pH in process B aggravate continued coupling. It is desirable to minimize Dmin density and Dmin variability due to continued coupling. Since conditions similar to process B are encountered in simplified trade processing, it is desirable to minimize continued coupling, as measured by the delta Dmin of process B - process A. These delta Dmin values are listed in Table VI along with λmax values and gamma values (obtained from plots of status M green density versus exposure).
(§3) 2.6 g/sq m Gelatin + 1.75 weight % BVSME* Hardener
(§4) Coupler Solvent + or - A1 @ equal weight to coupler
(§5) 1.08 g/sq m Silver Emulsion
(§6) //////Cellulose Acetate Butyrate Support//////
(§7) Also included in this comparison was a 1:1 dispersion of M1 plus C2 to which was added the DIR coupler D1 (shown above) at a M1:D1 weight ratio of 1:0.045.

[2] = Photographic gamma with coupler solvents and addenda (KODAK FLEXICOLOR C-41 variants); details: Table VI; C2(0.8), aniline A1(0.2), no DIR coupler
Experimental: as §1
as §2, with “Both the lack of a stop bath and the high bleach pH in process B aggravate continued coupling. It is desirable to minimize Dmin density and Dmin variability due to continued coupling.” left out, “exposure). […]” for “exposure).”

[3] = Formaldehyde exposure test (loss of dye density obtainable on processing); details: Table II, Example 3; 48 hr formaldehyde exposure, 60% RH; relative to water-glycerol only
Text: Prior examples of 3-anilino-1-phenyl-5-pyrazolone couplers that yield bathochromic dyes have been limited to four-equivalent couplers or to couplers with coupling-off groups other than arylthio or alkylthio groups. The four-equivalent couplers are not suitable for the practice of this invention because of their high propensity to react with formaldehyde or other hardeners. This can be illustrated by exposing coupler-containing films to formaldehyde and noting the changes in the dye density obtainable upon photographic processing. To obtain the data in Table II one set of film strips was suspended in a light-tight tank over a beaker containing 10 g of formaldehyde, and a solution of 14 g of water and 36 g of glycerol (60% RH) for 48 hr. A second set of strips was suspended for 48 hr over a water-glycerol solution without the beaker of formaldehyde. The strips were then exposed through a stepwedge, process (C-41) and the densities were measured. Values of the percent reduction in (Dmax-Dmin) for the samples exposed to formaldehyde relative to the samples exposed to water-glycerol only were determined.
Coatings of B8,B9 and M1 prepared as described in Example 2 were subjected to the formaldehyde test.

[4] = Photographic gamma (slope of status M green density vs. exposure), C-41 process; details: coupler:S1 1:0.5
Experimental: (§8) Dispersions of the comparative couplers B1-B3 and B8 and of the couplers of this invention M1-M3 were prepared by dissolving the coupler in the coupler solvent S1 plus the auxiliary solvent 2-(2-butoxyethoxy)ethyl acetate and then dispersing this oil phase in an aqueous solution of gelatin and surfactant using an ultrasonic probe. The dispersions were chilled and washed for 6 hr at 4° C. to remove the auxiliary solvent. The dispersions contained approximately 8.8% coupler, 4.4% S1 and 6% gelatin by weight.
(§9) The dispersions were coated at 1.04 mmole/sq m together with a silver bromoiodide emulsion on a transparent acetate support in the format shown below. Hardened film strips were exposed through a 0-4 neutral density stepwedge and daylight V and WRATTEN 9 filters and subjected to a standard C-41 process at 37.8° C. The process consists of 2.5 min in color developer, 4 min in a ferric EDTA/PDTA bleach solution, 2 min wash, 4 min fix and 2 min final wash. Photographic gamma values were obtained from the slopes of plots of status M green density vs. exposure for processed samples. Absorption spectra of the dye-containing processed films were measured at a density near 1.0 on a spectrophotometer and the wavelengths of maximum absorption (λ max values) were recorded.
(§10) BVSM* Hardener 0.06 g/sq m
(§11) Coupler Solvent S1 1/2 coupler laydown
(§12) Dispersions of couplers B3, M1 and M5 with S1 (1:0.5) were prepared and coated as in Example 2. Film strips of these coatings were exposed, processed and analyzed as in Example 2. λmax values and gamma values associated with these film compositions are listed in Table III. This series further illustrates the use of electron-withdrawing substituents to obtain magenta dyes of the proper hue.
(§13) Dispersions of the comparative couplers B4, B5 and B8 and the couplers of this invention M6-M11 were prepared and coated as in Example 2. The coupler solvent S1 was again used at a 1:0.5 coupler:S1 weight ratio. Film strips of the hardened coatings were exposed, processed and analyzed as in Example 2. Couplers B4 and M6-M8 have a strongly electron-withdrawing alkoxycarbonyl substituent in the R2 position and couplers B5 and M9-M11 have a strongly electron-withdrawing alkylsulfonyl group at R2. […] The couplers of this invention, M6-M11, which have strong electron-withdrawing groups in each ring, yield dyes having the desired bathochromic hues, as shown by the λmax values. The gamma values obtained with the couplers of this invention are suitably high to be useful in photographic materials, as indicated by comparison to the gamma obtained from the commercial coupler B8.
(§14) Dispersions of the comparison couplers B6 and B7, and of the couplers of this invention M12-M17, were prepared using the coupler solvent Sl as in Example 2. These were coated as in Example 2, and hardened film strips were exposed, processed and analyzed as in Example 2. The results obtained are summarized in Table V. In this example all of the couplers have sulfamoyl or alkylsulfonyl substituents in the R1 position and the R2 substituent on the 3-anilino ring is varied. Comparative couplers B6 and B7 have chloro substituents at R2, whereas M12-M17 of this invention have strong electron withdrawing R2 groups. […] The gamma values of the couplers of this invention are similar to those of the comparative couplers.

[5] = Continued coupling in bleach, delta Dmin process B - process A; details: Table VI
Experimental: as §1, §2, §3, §4, §5, §6
or Standard C-41 Bleach II
2B Bleach II Adjusted to pH = 6.0
as §7

[6] = Absorption spectra of dye-containing processed films (λmax), C-41 process; type: physicochemical; details: coupler:S1 1:0.5
Experimental: as §8, §9, §10, §11, §12, §13, §14

[7] = Unwanted blue light absorption of magenta dye in film (absorption spectra, FIGURE); type: physicochemical; details: relative to dye derived from comparative coupler B5
Experimental: as §9
Dispersions of the comparative couplers B4, B5 and B8 and the couplers of this invention M6-M11 were prepared and coated as in Example 2. The coupler solvent S1 was again used at a 1:0.5 coupler:S1 weight ratio. Film strips of the hardened coatings were exposed, processed and analyzed as in Example 2. Couplers B4 and M6-M8 have a strongly electron-withdrawing alkoxycarbonyl substituent in the R2 position and couplers B5 and M9-M11 have a strongly electron-withdrawing alkylsulfonyl group at R2. […]

[8] = C2(0.8), aniline A1(0.2), no DIR coupler
[9] = C2(1.0), no aniline, DIR coupler D1(0.045)
[10] = C2(1.0), no aniline, no DIR coupler

λmax(nm) [1, 8] [nm]	λmax(nm) [1, 9] [nm]	λmax(nm) [1, 10] [nm]	λmax(nm) (+-0.5) ([6]; Table I, Example 2)	λmax(nm) (+-0.5) ([6]; Table IV, Example 5)	SMILES	Gamma [2]	% Density Loss after Formaldehyde Exposure [3] [%]	Gamma ([4]; Table III, Example 4)	Delta Dmin Process B-A [5, 8]	Delta Dmin Process B-A [5, 9]	Delta Dmin Process B-A [5, 10]	Gamma ([4]; Table IV, Example 5)	unwanted blue light absorption at 480 nm [7]
549	549	549	550.5	–	CCCCCCCCCCCCNS(=O)(=O)c1ccc(NC2=NN(c3c(Cl)cc(S(=O)(=O)N4CCOCC4)cc3Cl)C(=O)C2Sc2cc(C(C)(C)CC(C)(C)C)ccc2OCCCC)c(Cl)c1 (stereo not shown) [Coupler M1]	1.83	3	4.4	0.040	0.088	0.073	–	–
–	–	–	–	551.0	CCCCCCCCCCCCS(=O)(=O)c1ccc(NC2=NN(c3c(Cl)cc(C#N)cc3Cl)C(=O)C2Sc2cc(C(C)(C)CC(C)(C)C)ccc2OCCCC)c(Cl)c1 (stereo not shown) [Coupler M11]	–	–	–	–	–	–	3.3	less unwanted blue light absorption at 480 nm
